Source: the supplement of paper PMC10307832

Experiments:
Assay in all cases: relative viability (nuclei count vs DMSO), 5 days (fraction); higher = more cells survive
201T = system: 201T
In short: (§1)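 Five library-drug doses in √10 steps were combined with a fixed anchor-drug dose, or a single drug was given alone, by pin tool to lung cancer cell lines in 1536-well plates the day after seeding. Nuclei were stained and counted after 5 days. Relative viability is the nuclei count in treated wells over that in vehicle wells, taken as the median of duplicate plates.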

BEN = system: BEN
In short: as §1

EMC-BAC-2 = system: EMC-BAC-2
In short: as §1

HARA = system: HARA
In short: as §1

HCC-44 = system: HCC-44
In short: as §1

LCLC-103H = system: LCLC-103H
In short: as §1

LOU-NH91 = system: LOU-NH91
In short: as §1

NCI-H1395 = system: NCI-H1395
In short: as §1

NCI-H1666 = system: NCI-H1666
In short: as §1

NCI-H1993 = system: NCI-H1993
In short: as §1

NCI-H2009 = system: NCI-H2009
In short: as §1

NCI-H2023 = system: NCI-H2023
In short: as §1

NCI-H2087 = system: NCI-H2087
In short: as §1

NCI-H2126 = system: NCI-H2126
In short: as §1

NCI-H2347 = system: NCI-H2347
In short: as §1

NCI-H23 = system: NCI-H23
In short: as §1

NCI-H3122 = system: NCI-H3122
In short: as §1

NCI-H441 = system: NCI-H441
In short: as §1

NCI-H596 = system: NCI-H596
In short: as §1

NCI-H647 = system: NCI-H647
In short: as §1

NCI-H650 = system: NCI-H650
In short: as §1

NCI-H727 = system: NCI-H727
In short: as §1

NCI-H838 = system: NCI-H838
In short: as §1

Clc1ccc(Nc2nnc(Cc3ccncc3)c3ccccc23)cc1 [Vatalanib] + Cc1nc(NC(=O)N2CCC[C@H]2C(N)=O)sc1-c1ccnc(C(C)(C)C(F)(F)F)c1 [Alpelisib] (partner 2 µM)
relative viability (201T; first compound 0.04 µM): 0.984
relative viability (201T; first compound 0.1265 µM): 1.03
relative viability (201T; first compound 0.4 µM): 1.04
relative viability (201T; first compound 1.265 µM): 1.03
relative viability (201T; first compound 4 µM): 1.07
relative viability (BEN; first compound 0.04 µM): 1.05
relative viability (BEN; first compound 0.1265 µM): 0.945
relative viability (BEN; first compound 0.4 µM): 1.09
relative viability (BEN; first compound 1.265 µM): 1.18
relative viability (BEN; first compound 4 µM): 1.04
relative viability (EMC-BAC-2; first compound 0.04 µM): 0.714
relative viability (EMC-BAC-2; first compound 0.1265 µM): 0.714
relative viability (EMC-BAC-2; first compound 0.4 µM): 0.72
relative viability (EMC-BAC-2; first compound 1.265 µM): 0.74
relative viability (EMC-BAC-2; first compound 4 µM): 0.729
relative viability (HARA; first compound 0.04 µM): 0.738
relative viability (HARA; first compound 0.1265 µM): 0.869
relative viability (HARA; first compound 0.4 µM): 0.761
relative viability (HARA; first compound 1.265 µM): 0.831
relative viability (HARA; first compound 4 µM): 0.808
relative viability (HCC-44; first compound 0.04 µM): 0.803
relative viability (HCC-44; first compound 0.1265 µM): 0.815
relative viability (HCC-44; first compound 0.4 µM): 0.777
relative viability (HCC-44; first compound 1.265 µM): 0.81
relative viability (HCC-44; first compound 4 µM): 0.745
relative viability (LCLC-103H; first compound 0.04 µM): 0.987
relative viability (LCLC-103H; first compound 0.1265 µM): 0.923
relative viability (LCLC-103H; first compound 0.4 µM): 1.02
relative viability (LCLC-103H; first compound 1.265 µM): 0.954
relative viability (LCLC-103H; first compound 4 µM): 0.96
relative viability (LOU-NH91; first compound 0.04 µM): 0.75
relative viability (LOU-NH91; first compound 0.1265 µM): 0.702
relative viability (LOU-NH91; first compound 0.4 µM): 0.595
relative viability (LOU-NH91; first compound 1.265 µM): 0.704
relative viability (LOU-NH91; first compound 4 µM): 0.732
relative viability (NCI-H1395; first compound 0.04 µM): 1.08
relative viability (NCI-H1395; first compound 0.1265 µM): 1.04
relative viability (NCI-H1395; first compound 0.4 µM): 1.19
relative viability (NCI-H1395; first compound 1.265 µM): 1.08
relative viability (NCI-H1395; first compound 4 µM): 0.971
relative viability (NCI-H1666; first compound 0.04 µM): 1.23
relative viability (NCI-H1666; first compound 0.1265 µM): 0.934
relative viability (NCI-H1666; first compound 0.4 µM): 0.978
relative viability (NCI-H1666; first compound 1.265 µM): 0.996
relative viability (NCI-H1666; first compound 4 µM): 0.941
relative viability (NCI-H1993; first compound 0.04 µM): 0.581
relative viability (NCI-H1993; first compound 0.1265 µM): 0.68
relative viability (NCI-H1993; first compound 0.4 µM): 0.678
relative viability (NCI-H1993; first compound 1.265 µM): 0.634
relative viability (NCI-H1993; first compound 4 µM): 0.707
relative viability (NCI-H2009; first compound 0.04 µM): 1.14
relative viability (NCI-H2009; first compound 0.1265 µM): 1.07
relative viability (NCI-H2009; first compound 0.4 µM): 1.2
relative viability (NCI-H2009; first compound 1.265 µM): 1.13
relative viability (NCI-H2009; first compound 4 µM): 1.22
relative viability (NCI-H2023; first compound 0.04 µM): 0.611
relative viability (NCI-H2023; first compound 0.1265 µM): 0.537
relative viability (NCI-H2023; first compound 0.4 µM): 0.657
relative viability (NCI-H2023; first compound 1.265 µM): 0.492
relative viability (NCI-H2023; first compound 4 µM): 0.561
relative viability (NCI-H2087; first compound 0.04 µM): 1.1
relative viability (NCI-H2087; first compound 0.1265 µM): 0.96
relative viability (NCI-H2087; first compound 0.4 µM): 1.3
relative viability (NCI-H2087; first compound 1.265 µM): 0.964
relative viability (NCI-H2087; first compound 4 µM): 1.1
relative viability (NCI-H2126; first compound 0.04 µM): 0.714
relative viability (NCI-H2126; first compound 0.1265 µM): 0.75
relative viability (NCI-H2126; first compound 0.4 µM): 0.761
relative viability (NCI-H2126; first compound 1.265 µM): 0.725
relative viability (NCI-H2126; first compound 4 µM): 0.742
relative viability (NCI-H2347; first compound 0.04 µM): 1.05
relative viability (NCI-H2347; first compound 0.1265 µM): 1.13
relative viability (NCI-H2347; first compound 0.4 µM): 1.03
relative viability (NCI-H2347; first compound 1.265 µM): 0.963
relative viability (NCI-H2347; first compound 4 µM): 1.03
relative viability (NCI-H23; first compound 0.04 µM): 0.649
relative viability (NCI-H23; first compound 0.1265 µM): 0.672
relative viability (NCI-H23; first compound 0.4 µM): 0.78
relative viability (NCI-H23; first compound 1.265 µM): 0.775
relative viability (NCI-H23; first compound 4 µM): 0.75
relative viability (NCI-H3122; first compound 0.04 µM): 0.779
relative viability (NCI-H3122; first compound 0.1265 µM): 0.742
relative viability (NCI-H3122; first compound 0.4 µM): 0.799
relative viability (NCI-H3122; first compound 1.265 µM): 0.93
relative viability (NCI-H3122; first compound 4 µM): 0.906
relative viability (NCI-H441; first compound 0.04 µM): 0.808
relative viability (NCI-H441; first compound 0.1265 µM): 0.627
relative viability (NCI-H441; first compound 0.4 µM): 0.733
relative viability (NCI-H441; first compound 1.265 µM): 0.836
relative viability (NCI-H441; first compound 4 µM): 0.859
relative viability (NCI-H596; first compound 0.04 µM): 0.503
relative viability (NCI-H596; first compound 0.1265 µM): 0.499
relative viability (NCI-H596; first compound 0.4 µM): 0.498
relative viability (NCI-H596; first compound 1.265 µM): 0.53
relative viability (NCI-H596; first compound 4 µM): 0.511
relative viability (NCI-H647; first compound 0.04 µM): 1.11
relative viability (NCI-H647; first compound 0.1265 µM): 1.05
relative viability (NCI-H647; first compound 0.4 µM): 1.19
relative viability (NCI-H647; first compound 1.265 µM): 1.1
relative viability (NCI-H647; first compound 4 µM): 1.05
relative viability (NCI-H650; first compound 0.04 µM): 1.24
relative viability (NCI-H650; first compound 0.1265 µM): 0.936
relative viability (NCI-H650; first compound 1.265 µM): 1.06
relative viability (NCI-H650; first compound 4 µM): 1.13
relative viability (NCI-H727; first compound 0.04 µM): 0.463
relative viability (NCI-H727; first compound 0.1265 µM): 0.528
relative viability (NCI-H727; first compound 0.4 µM): 0.666
relative viability (NCI-H727; first compound 1.265 µM): 0.397
relative viability (NCI-H727; first compound 4 µM): 0.566
relative viability (NCI-H838; first compound 0.04 µM): 0.975
relative viability (NCI-H838; first compound 0.1265 µM): 1.07
relative viability (NCI-H838; first compound 0.4 µM): 1.06
relative viability (NCI-H838; first compound 1.265 µM): 0.864
relative viability (NCI-H838; first compound 4 µM): 0.985
